According to patent US20210045385A1, “PYRIDAZINONE-SUBSTITUTED KETOXIMES AS HERBICIDES” (FMC Corporation, priority 2018, published 2021):

What was measured:
Type in all cases: in vivo
[1] = system: Italian ryegrass (Lolium mutiflorum); experiment: Test C postemergence, visual plant response rating
Outline: (§1)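 Visual injury on a 0 (no effect) to 100 (complete control) scale versus untreated controls, scored approximately 10 d after treatment under greenhouse conditions. Treatments used surfactant-containing non-phytotoxic solvent formulations, sprayed onto loam–sand soil preemergence or onto one- to two-leaf plants 2–10 cm tall postemergence.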

[2] = system: blackgrass (Alopecurus myosuroides); experiment: Test C postemergence, visual plant response rating
Outline: as §1

[3] = system: ragweed (common ragweed, Ambrosia artemisiifolia); experiment: Test C postemergence, visual plant response rating
Outline: as §1

[4] = system: galium (catchweed bedstraw, Galium aparine); experiment: Test C postemergence, visual plant response rating
Outline: as §1

[5] = system: barnyardgrass (Echinochloa crus-galli); experiment: Test C postemergence, visual plant response rating
Outline: as §1

[6] = system: wheat (Triticum aestivum); experiment: Test C postemergence, visual plant response rating
Outline: as §1

corn (Zea mays) = experiment: Test C postemergence, visual plant response rating
Outline: as §1

kochia (Bassia scoparia) [7] = experiment: Test C postemergence, visual plant response rating
Outline: as §1

[8] = system: pigweed (Amaranthus retroflexus); experiment: Test C postemergence, visual plant response rating
Outline: as §1

[9] = system: foxtail, giant (giant foxtail, Setaria faberi); experiment: Test C postemergence, visual plant response rating
Outline: as §1

[10] = system: sedge umbrella (small-flower umbrella sedge, Cyperus difformis); experiment: Test D flooded paddy test, visual plant response rating; conditions: 250 g ai/ha, scale 0 to 100 (0 no effect, 100 complete control), 13 to 15 d
Outline: (§2)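 Visual injury scores, 0 (no effect) to 100 (complete control), were assigned after 13 to 15 d in the greenhouse by comparison with controls. Test compounds had been added to paddy water covering soil by 3 cm at the 2-leaf stage.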

[11] = system: barnyardgrass (Echinochloa crus-galli); experiment: as above; conditions: 250 g ai/ha, scale 0 to 100 (0 no effect, 100 complete control), 13 to 15 d
Outline: as §2

[12] = system: duck salad (Heteranthera limosa); experiment: as above; conditions: 250 g ai/ha, scale 0 to 100 (0 no effect, 100 complete control), 13 to 15 d
Outline: as §2

rice (Oryza sativa) = experiment: as above; conditions: 250 g ai/ha, scale 0 to 100 (0 no effect, 100 complete control), 13 to 15 d
Outline: as §2

[13] = system: Italian ryegrass (Lolium mutiflorum); experiment: Test C preemergence, visual plant response rating
Outline: as §1

[14] = system: ragweed (common ragweed, Ambrosia artemisiifolia); experiment: Test C preemergence, visual plant response rating
Outline: as §1

[15] = system: barnyardgrass (Echinochloa crus-galli); experiment: Test C preemergence, visual plant response rating
Outline: as §1

kochia (Bassia scoparia) [16] = experiment: Test C preemergence, visual plant response rating
Outline: as §1

[17] = system: pigweed (Amaranthus retroflexus); experiment: Test C preemergence, visual plant response rating
Outline: as §1

[18] = system: foxtail, giant (giant foxtail, Setaria faberi); experiment: Test C preemergence, visual plant response rating
Outline: as §1

[19] = Test C, postemergence, 125 g ai/ha
[20] = Test C, 31 g ai/ha, 0 is no effect, 100 is complete control
[21] = Test C, 125 g ai/ha, 0 is no effect, 100 is complete control
[22] = Test C, postemergence, 31 g ai/ha

SMILES | Ryegrass, Italian plant response rating (0 to 100 scale) ([1]; Postemergence, 31 g ai/ha) | Ryegrass, Italian plant response rating (0 to 100 scale) [1, 19] | Blackgrass plant response rating (0 to 100 scale) [2, 19] | Ragweed plant response rating (0 to 100 scale) ([3]; Postemergence, 31 g ai/ha) | Ragweed plant response rating (0 to 100 scale) [3, 19] | Galium plant response rating (0 to 100 scale) [4, 19] | Barnyardgrass plant response rating (0 to 100 scale) [5, 19] | Wheat plant response rating (0 to 100 scale) ([6]; Postemergence, 31 g ai/ha) | Wheat plant response rating (0 to 100 scale) [6, 19] | Corn plant response rating (0 to 100 scale) (corn (Zea mays); [19]) | Kochia plant response rating (0 to 100 scale) (kochia (Bassia scoparia) [7]; [19]) | Pigweed plant response rating (0 to 100 scale) ([8]; Postemergence, 31 g ai/ha) | Pigweed plant response rating (0 to 100 scale) [8, 19] | Foxtail, Giant plant response rating (0 to 100 scale) [9, 19] | Plant response rating, Sedge, Umbrella (Flood) [10] | Plant response rating, Barnyardgrass (Flood) [11] | Plant response rating, Ducksalad (Flood) [12] | Plant response rating, Rice (Flood) (rice (Oryza sativa)) | Ryegrass, Italian plant response rating (0 to 100 scale) [13, 20] | Ragweed plant response rating (0 to 100 scale) [14, 20] | other results
CO/N=C(/c1cccc(Br)c1)c1c(O)c(C)nn(C)c1=O [Compound 234] | 50 | 70 | 0 | 40 | 80 | 90 | 30 | 0 | 0 | 0 | 70 | 10 | 30 | 30 | 0 | 0 | 0 | 0 | 40 | 10 | Blackgrass plant response rating (0 to 100 scale) ([2]; Postemergence, 31 g ai/ha): 10; Galium plant response rating (0 to 100 scale) ([4]; Postemergence, 31 g ai/ha): 80; Barnyardgrass plant response rating (0 to 100 scale) ([5]; Postemergence, 31 g ai/ha): 10; Corn plant response rating (0 to 100 scale) (corn (Zea mays); Postemergence, 31 g ai/ha): 0; Kochia plant response rating (0 to 100 scale) (kochia (Bassia scoparia) [7]; Postemergence, 31 g ai/ha): 30; Foxtail, Giant plant response rating (0 to 100 scale) ([9]; Postemergence, 31 g ai/ha): 10; Ryegrass, Italian plant response rating (0 to 100 scale) [13, 21]: 90; Ragweed plant response rating (0 to 100 scale) [14, 21]: 40; Barnyardgrass plant response rating (0 to 100 scale) [15, 20]: 0; Barnyardgrass plant response rating (0 to 100 scale) [15, 21]: 0; Kochia plant response rating (0 to 100 scale) (kochia (Bassia scoparia) [16]; [20]): 0; Kochia plant response rating (0 to 100 scale) (kochia (Bassia scoparia) [16]; [21]): 0; Pigweed plant response rating (0 to 100 scale) [17, 20]: 0; Pigweed plant response rating (0 to 100 scale) [17, 21]: 0; Foxtail, Giant plant response rating (0 to 100 scale) [18, 20]: 0; Foxtail, Giant plant response rating (0 to 100 scale) [18, 21]: 20
CO/N=C(\c1cc(F)cc(F)c1C)c1c(O)c(C)nn(C)c1=O [Compound 152] | 20 | 80 | 10 | 40 | 90 | 80 | 20 | 0 | 0 | 0 | 80 | 60 | 70 | 50 | 0 | 0 | 0 | 0 | 20 | 20 | Blackgrass plant response rating (0 to 100 scale) [2, 22]: 0; Galium plant response rating (0 to 100 scale) [4, 22]: 80; Barnyardgrass plant response rating (0 to 100 scale) [5, 22]: 0; Corn plant response rating (0 to 100 scale) (corn (Zea mays); [22]): 0; Kochia plant response rating (0 to 100 scale) (kochia (Bassia scoparia) [7]; [22]): 50; Foxtail, Giant plant response rating (0 to 100 scale) [9, 22]: 10; Ryegrass, Italian plant response rating (0 to 100 scale) ([13]; 125 g ai/ha): 80; Ragweed plant response rating (0 to 100 scale) ([14]; 125 g ai/ha): 40; Barnyardgrass plant response rating (0 to 100 scale) ([15]; 125 g ai/ha): 10; Barnyardgrass plant response rating (0 to 100 scale) [15, 20]: 0; Kochia plant response rating (0 to 100 scale) (kochia (Bassia scoparia) [16]; 125 g ai/ha): 10; Kochia plant response rating (0 to 100 scale) (kochia (Bassia scoparia) [16]; [20]): 0; Pigweed plant response rating (0 to 100 scale) ([17]; 125 g ai/ha): 30; Pigweed plant response rating (0 to 100 scale) [17, 20]: 0; Foxtail, Giant plant response rating (0 to 100 scale) ([18]; 125 g ai/ha): 20; Foxtail, Giant plant response rating (0 to 100 scale) [18, 20]: 0
C#CCO/N=C(/c1cc(Cl)cc(Br)c1)c1c(O)c(C)nn(C)c1=O [Compound 291] | 90 | 100 | 70 | 100 | 100 | 100 | 70 | 30 | 90 | 30 | 100 | 30 | 60 | 80 | 45 | 0 | 25 | 0 | 10 | 60 | Blackgrass plant response rating (0 to 100 scale) ([2]; Postemergence, 31 g ai/ha): 0; Galium plant response rating (0 to 100 scale) ([4]; Postemergence, 31 g ai/ha): 100; Barnyardgrass plant response rating (0 to 100 scale) ([5]; Postemergence, 31 g ai/ha): 20; Corn plant response rating (0 to 100 scale) (corn (Zea mays); Postemergence, 31 g ai/ha): 20; Kochia plant response rating (0 to 100 scale) (kochia (Bassia scoparia) [7]; Postemergence, 31 g ai/ha): 50; Foxtail, Giant plant response rating (0 to 100 scale) ([9]; Postemergence, 31 g ai/ha): 40; Ryegrass, Italian plant response rating (0 to 100 scale) [13, 21]: 100; Ragweed plant response rating (0 to 100 scale) [14, 21]: 100; Barnyardgrass plant response rating (0 to 100 scale) [15, 20]: 0; Barnyardgrass plant response rating (0 to 100 scale) [15, 21]: 100; Kochia plant response rating (0 to 100 scale) (kochia (Bassia scoparia) [16]; [20]): 0; Kochia plant response rating (0 to 100 scale) (kochia (Bassia scoparia) [16]; [21]): 90; Pigweed plant response rating (0 to 100 scale) [17, 20]: 10; Pigweed plant response rating (0 to 100 scale) [17, 21]: 80; Foxtail, Giant plant response rating (0 to 100 scale) [18, 20]: 50; Foxtail, Giant plant response rating (0 to 100 scale) [18, 21]: 100
CO/N=C(/c1cc(F)cc(F)c1C)c1c(O)c(C)nn(C)c1=O [Compound 305] | 10 | 80 | 20 | 30 | 70 | 70 | 30 | 0 | 0 | 0 | 70 | 60 | 90 | 50 | 0 | 0 | 0 | 0 | 0 | 20 | Blackgrass plant response rating (0 to 100 scale) ([2]; Postemergence, 31 g ai/ha): 10; Galium plant response rating (0 to 100 scale) ([4]; Postemergence, 31 g ai/ha): 70; Barnyardgrass plant response rating (0 to 100 scale) ([5]; Postemergence, 31 g ai/ha): 20; Corn plant response rating (0 to 100 scale) (corn (Zea mays); Postemergence, 31 g ai/ha): 0; Kochia plant response rating (0 to 100 scale) (kochia (Bassia scoparia) [7]; Postemergence, 31 g ai/ha): 50; Foxtail, Giant plant response rating (0 to 100 scale) ([9]; Postemergence, 31 g ai/ha): 30; Ryegrass, Italian plant response rating (0 to 100 scale) ([13]; 125 g ai/ha): 30; Ragweed plant response rating (0 to 100 scale) ([14]; 125 g ai/ha): 20; Barnyardgrass plant response rating (0 to 100 scale) ([15]; 125 g ai/ha): 20; Barnyardgrass plant response rating (0 to 100 scale) [15, 20]: 10; Kochia plant response rating (0 to 100 scale) (kochia (Bassia scoparia) [16]; 125 g ai/ha): 30; Kochia plant response rating (0 to 100 scale) (kochia (Bassia scoparia) [16]; [20]): 10; Pigweed plant response rating (0 to 100 scale) ([17]; 125 g ai/ha): 70; Pigweed plant response rating (0 to 100 scale) [17, 20]: 30; Foxtail, Giant plant response rating (0 to 100 scale) ([18]; 125 g ai/ha): 30; Foxtail, Giant plant response rating (0 to 100 scale) [18, 20]: 10
